Laboratory results as given in patent US12016841B2, “Methods and compositions for treatment of presbyopia, mydriasis, and other ocular disorders” (Ocuphire Pharma, Inc., priority 2018, dated 2024).
Structures can show the parent of a compound that is named as a salt.

Tested on: patients with pupil sizes of at least 7 mm in diameter under dim light conditions
Assay: Pupil diameter after one drop of 0.2%, 0.4% or 0.8% (w/v) phentolamine mesylate solution (clinical study, NeurOptics pupilometer)
Format: in vivo, human
Procedure: Reduction in pupil diameter can be analyzed and characterized using procedures such as those described below in which a phentolamine mesylate solution was administered to patients' eyes and change in pupil diameter was measured and characterized. […] The phentolamine mesylate solution contained either 0.2% (w/v) phentolamine mesylate, 0.4% (w/v) phentolamine mesylate, or 0.8% (w/v) phentolamine mesylate.
Sixteen patients were randomized into four groups (of four subjects each). Each group was treated on three successive study visits separated by at least 4 days with one drop of ophthalmic oxymetazoline solution (Visine LR®) in each eye followed by one drop test article in each eye. The test article was a 0.2% (w/v) phentolamine mesylate solution, 0.4% (w/v) phentolamine mesylate solution, 0.8% (w/v) phentolamine mesylate solution, or placebo. Test articles contained the designed amount of phentolamine mesylate in a solution of Tears Naturale II® (from Alcon Labs). Placebo was just Tears Naturale II® (from Alcon Labs). Tears Naturale II® (from Alcon Labs) contains Dextran 70 (0.1% by weight), Hydroxypropyl Methylcellulose 2910 (0.3% by weight), Polyquaternium-1 (0.001% by weight), potassium chloride, water (purified), sodium borate, sodium chloride, and hydrochloric acid and/or sodium hydroxide as necessary to adjust the pH. The patients' pupil diameters were recorded at baseline (i.e., prior to treatment administration), and at 30 minutes, 1 hour, 2 hours, 4 hours, and 8 hours after administration of test articles. Total study duration was approximately nine hours.
Pupil diameters were measured to within 0.1 mm for each eye at baseline and each subsequent time point using a NeurOptics™ pupilometer. Comparisons of changes in mean values within treatment groups were tested for significance using two-tailed paired two sample t-tests with a threshold for significance set at p<0.01 (Bonferroni Correction for multiple paired t-tests). Differences between treatment groups with respect to mean values for pupil size over the course of the study were tested for significance using repeated measure ANOVA (which discards data from subjects lacking any data points). Differences in means between treatment groups at individual time points were tested for significance using one-way ANOVA.

Compound: Cc1ccc(N(CC2=NCCN2)c2cccc(O)c2)cc1 [phentolamine mesylate]
- mean pupil diameters compared to placebo (ad hoc Fisher's tests) (any concentration, 2, 4 and 8 hours): significant differences in mean pupil diameters
- mean changes in pupil diameters from baseline as a function of time (over the course of the study): significant reductions in pupil size

Compound: Cc1ccc(N(CC2=NCCN2)c2cccc(O)c2)cc1 [phentolamine]
- differences in mean pupil diameters between different doses (any time point): no statistically significant differences
- mean pupil diameters (one hour post treatment): lower
